Compound: C=C(c1ccc(C(=O)O)cc1)c1cc2c(cc1C)C(C)(C)CCC2(C)C [Bexarotene]
Assay: relative viability (nuclei count vs DMSO), 5 days (fraction); higher = more cells survive
Summary of the method: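 Acceptance criteria were a control CV below 25% and at least one doubling per plate. Lung cancer cell lines in 1536-well plates got five library-drug doses (not always all listed) √10 apart by pinning and were left 5 days with no medium change. Viability divides treated-well nuclei by vehicle-well nuclei and is the median across plates. Nuclei were counted by MetaXpress from 4× Hoechst images.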

Cell Line	relative viability (0.08 µM)	relative viability (0.253 µM)	relative viability (0.8 µM)	relative viability (2.53 µM)	relative viability (8 µM)
201T	1.02	0.989	0.971	0.942	0.93
A549	1.07	0.99	0.964	0.933	0.878
A-427	1.06	0.963	0.954	0.895	0.893
ABC-1	1	0.904	0.892	0.851	0.993
BEN	1.01	0.822	0.868	0.752	0.87
CAL-12T	0.989	0.992	0.981	0.844	0.917
COR-L23	1.16	0.979	0.936	0.874	0.951
COR-L 105	1.13	1.02	0.963	0.987	0.892
Calu-6	1.04	1.03	0.955	1.02	1.06
ChaGo-K-1	1.09	1.01	1	1.03	0.989
EBC-1	0.901	1.03	0.971	1.02	1.08
EKVX	0.974	0.98	0.97	1.02	0.891
EMC-BAC-2	1.15	1.02	1		1.02
EPLC-272H	1	0.93	0.802	0.881	0.939
H3255	1.07	0.949	1.05	0.988	1.01
HARA	1.04	1.03	0.838	0.925	0.875
HCC-15	1.1	1.11	1.02	0.978	1.05
HCC-44	0.981	1.02	0.889	0.976	0.932
HCC-78	1.09	0.889	0.844	0.849	1.08
HCC-366	1.06	0.998	1.02	0.999	1.02
HCC-827	1.09	0.993	0.961	1.05	0.937
HOP-62	1.13	1.11	1.15	1.04	1
IA-LM	0.876	0.906	0.806	0.774	0.831
LC-2-ad	0.989	1.08	1.06	1	0.98
LCLC-97TM1	1.03	0.969	1.02	0.829	0.939
LCLC-103H	1.09	1.03	0.849	0.983	1.05
LK-2	1.32	0.942	1.04	0.977	0.998

Cell Line	relative viability (0.08 µM)	relative viability (0.253 µM)	relative viability (0.8 µM)	relative viability (2.53 µM)	relative viability (8 µM)
LOU-NH91	1.04	0.957	0.952	0.869	0.926
LU99A	1.33	1.07	0.977	1.06	1.09
LXF-289	1.19	1.18	1.16	1.17	1.29
NCI-H23	1.17	0.927	0.952	0.82	0.899
NCI-H322M	1.08	1.03	0.937	0.988	1.01
NCI-H358	1.04	1.14	0.871	0.974	1.05
NCI-H441	1.31	1.1	1.04	0.969	1
NCI-H460	1.04	0.976	0.986	0.944	0.946
NCI-H520	1.06	0.869	0.865	0.852	0.972
NCI-H522	1.14	0.872	0.957	0.816	1.02
NCI-H596	0.956	0.848	0.957	0.994	0.919
NCI-H647	1.03	1.08	0.896	0.924	0.874
NCI-H650	1.19	1.03	0.986	0.822	0.919
NCI-H661	1.04	0.998	0.934	0.922	0.91
NCI-H727	0.961	0.978	0.916	1.05	1.04
NCI-H838	1.04	1.03	1.04	1.04	0.996
NCI-H1299	1.01	1.12	1.06	1.01	1.02
NCI-H1355	1.11	1.04	0.945	0.979	0.96
NCI-H1395	1.06	0.905	1.01	0.75	0.957
NCI-H1437	1.04	1.01	1.03	0.996	1.01
NCI-H1563	1.03	0.911	0.868	0.938	0.987
NCI-H1648	1.02	0.971	0.645	0.735	0.708
NCI-H1650	1.01	0.897	0.912	0.785	0.844
NCI-H1651	1.08	0.987	1.01	1.02	1
NCI-H1666	1.03	0.924	0.913	0.98	0.857
NCI-H1703	0.944	0.968	0.759	0.647	0.701
NCI-H1734	1.04	0.966	0.989	0.881	0.879

Cell Line	relative viability (0.08 µM)	relative viability (0.253 µM)	relative viability (0.8 µM)	relative viability (2.53 µM)	relative viability (8 µM)
NCI-H1755	1.07	1.15	1.06	0.998	0.982
NCI-H1792	0.904	0.886	0.672	0.632	0.769
NCI-H1793	1.12	0.93	0.754	0.838	0.881
NCI-H1915	1.13	1.05	0.999	0.951	0.904
NCI-H1944	1.29	1.07	1.07	1.25	1.03
NCI-H1975	1.05	1.04	1.09	1.01	1.2
NCI-H1993	1.09	0.919	0.788	0.862	0.832
NCI-H2009	1.21	1.22	1.11	1.08	1.07
NCI-H2023	1.05	0.958	1.01	0.921	0.771
NCI-H2085	0.981	0.979	0.903	0.869	0.901
NCI-H2087	1.08	1.12	1.02	1.03	0.892
NCI-H2126	1.02	1.01	0.954	0.991	0.971
NCI-H2170	0.96	0.969	0.942	0.909	0.831
NCI-H2228	1.02	1.24	1.03	0.819	0.947
NCI-H2342	1.01	0.797	0.965	1.04	1.06
NCI-H2347	1.18	1.04	0.809	0.981	1.07
NCI-H2405	1.12	1.01	0.857	0.97	0.986
NCI-H3122	1.05	1.11	1.03	1.04	1.05
PC-3 [JPC-3]	1.14	0.98	0.918	0.964	0.932
PC-14	1.05	1.17	0.973	0.92	0.896
RERF-LC-KJ	0.96	0.969	0.909	0.87	0.847
SK-LU-1	1.2	1.13		1.04	0.936
SK-MES-1	1.16	1.12	1	0.98	0.909
SW 900	0.874	0.948	0.726	0.684	0.888
SW 1573	1.04	0.976	0.921	0.84	0.771
UMC-11	0.976	0.952	0.917	0.917	0.963

Source: the supplement of paper PMC10307832
